# Values joined by “and” are separate entries in the source; they are usually repeats but may differ in a detail not shown here. Equal entries are not always repeated.
# How the values were obtained:
# Type in all cases: cell-based, human
# Donor 4 COP T-Cell Lines = assay: ATP proliferation assay (CellTiter Glo), Donor 4 COP T-cell lines, incl. reactivity to non-canonical GA peptides; details: for Non-Canonical Peptide Non-Reactivity: proliferation <2 times no antigen control; for Proliferation (luminescent ATP assay), Mean: T-cell line 205-1F4, Day 71, autologous B-LCL
# Donor 3 GMA T-Cell Lines = assay: ATP proliferation assay (CellTiter Glo), Donor 3 GMA T-cell lines, incl. reactivity to non-canonical GA peptides; details: for proliferation response to non-canonical GA peptides: 0, 1, 3, 10 μg/mL; for Non-Canonical Peptide Reactivity: at least one proliferation value >=2 times no antigen control
# Donor 3 COP T-Cell Lines = assay: ATP proliferation assay (CellTiter Glo), Donor 3 COP T-cell lines, incl. reactivity to non-canonical GA peptides; details: for Non-Canonical Peptide Reactivity: at least one proliferation value >=2 times no antigen control
substance,measurement,setting,value
poly (Glu-Lys; 1:4) [GL 14],Non-Canonical Peptide Non-Reactivity,Donor 4 COP T-Cell Lines; 205-1F4,GL 14
same,reactivity to non-canonical GA peptide,"Donor 4 COP T-Cell Lines; 205-1H3, at 1 μg/mL of antigen",showed reactivity
same,Non-Canonical Peptide Reactivity,"Donor 4 COP T-Cell Lines; 205-1H3, at least one proliferation value >=2 times no antigen control",GL 14
same,Non-Canonical Peptide Non-Reactivity,Donor 4 COP T-Cell Lines; 205-1H11,GL 14
same,Reactive T-Cell Line,"Donor 4 COP T-Cell Lines; Donor 4 COP lines, at least a 50% increase in proliferation relative to a control after stimulation with the non-canonical GA peptide",205-1H3 (Donor 4)
same,Nonreactive T-Cell Line,"Donor 4 COP T-Cell Lines; Donor 4 COP lines, stimulation with the non-canonical GA peptide",205-1F4 (Donor 4) and 205-1H11 (Donor 4)
same,"Proliferation (luminescent ATP assay), Mean",Donor 4 COP T-Cell Lines; 1 μg/mL antigen,12630
same,"Proliferation (luminescent ATP assay), Mean",Donor 4 COP T-Cell Lines; 3 μg/mL antigen,1423
same,"Proliferation (luminescent ATP assay), Mean",Donor 4 COP T-Cell Lines; 10 μg/mL antigen,158
same,"Reactivity (proliferation), Mean","Donor 4 COP T-Cell Lines; T-cell line 205-1H3, 1 μg/mL antigen, 0 μg/mL 4121.0",15619.0
same,"Reactivity (proliferation), Mean","Donor 4 COP T-Cell Lines; T-cell line 205-1H3, 3 μg/mL antigen, 0 μg/mL 4121.0",1053.3
same,"Reactivity (proliferation), Mean","Donor 4 COP T-Cell Lines; T-cell line 205-1H3, 10 μg/mL antigen, 0 μg/mL 4121.0",61.0
same,"Reactivity (proliferation), Mean","Donor 4 COP T-Cell Lines; T-cell line 205-1H11, 1 μg/mL antigen, 0 μg/mL 6941",5954 RLU
same,"Reactivity (proliferation), Mean","Donor 4 COP T-Cell Lines; T-cell line 205-1H11, 10 μg/mL antigen, 0 μg/mL 6941",102 RLU
same,"Reactivity (proliferation), Mean","Donor 4 COP T-Cell Lines; T-cell line 205-1H11, 30 μg/mL antigen, 0 μg/mL 6941",74 RLU
same,proliferation response to non-canonical GA peptides,"Donor 3 GMA T-Cell Lines; 165-B5G and 165-E7G, Day 55",responded well
same,Non-Canonical Peptide Reactivity,Donor 3 GMA T-Cell Lines; 165-B5G,GL 14
same,Non-Canonical Peptide Reactivity,Donor 3 GMA T-Cell Lines; 165-C5G,GL 14
same,Non-Canonical Peptide Reactivity,Donor 3 GMA T-Cell Lines; 165-E7G,GL 14
same,Non-Canonical Peptide Reactivity,Donor 3 GMA T-Cell Lines; 165-E9G,GL 14
same,Non-Canonical Peptide Reactivity,Donor 3 GMA T-Cell Lines; 165-F5G,GL 14
same,proliferation response to non-canonical GA peptides,"Donor 3 GMA T-Cell Lines; 165-F10G, 165-C5G, 165-H11G, 165-C7C, 165-E9G, 165-F5G, minimum 55 days in culture",responded well
same,Non-Canonical Peptide Reactivity,Donor 3 GMA T-Cell Lines; 165-F10G,GL 14
same,Non-Canonical Peptide Reactivity,Donor 3 GMA T-Cell Lines; 165-H11G,GL 14
same,Reactive T-Cell Line,"Donor 3 GMA T-Cell Lines; Donor 3 GMA lines, at least a 50% increase in proliferation relative to a control after stimulation with the non-canonical GA peptide",165-B5G (Donor 3) and 165-C5G (Donor 3) and 165-E7G (Donor 3) and 165-E9G (Donor 3) and 165-F5G (Donor 3) and 165-F10G (Donor 3) and 165-H11G (Donor 3)
same,"Proliferation (luminescent ATP assay), Mean","Donor 3 GMA T-Cell Lines; T-cell line 165-B5G, 1.25 μg/mL antigen, Day 55 of culturing, No Antigen Value 846",3912 RLU
same,"Proliferation (luminescent ATP assay), Mean","Donor 3 GMA T-Cell Lines; T-cell line 165-B5G, 2.5 μg/mL antigen, Day 55 of culturing, No Antigen Value 846",3245 RLU
same,"Proliferation (luminescent ATP assay), Mean","Donor 3 GMA T-Cell Lines; T-cell line 165-B5G, 5 μg/mL antigen, Day 55 of culturing, No Antigen Value 846",501 RLU
same,"Proliferation (luminescent ATP assay), Mean","Donor 3 GMA T-Cell Lines; T-cell line 165-B5G, 10 μg/mL antigen, Day 55 of culturing, No Antigen Value 846",45 RLU
same,"Proliferation (luminescent ATP assay), Mean","Donor 3 GMA T-Cell Lines; T-cell line 165-C5G, 1.25 μg/mL antigen, autologous B-LCL",1412 RLU
same,"Proliferation (luminescent ATP assay), Mean","Donor 3 GMA T-Cell Lines; T-cell line 165-C5G, 2.5 μg/mL antigen, autologous B-LCL",5418 RLU
same,"Proliferation (luminescent ATP assay), Mean","Donor 3 GMA T-Cell Lines; T-cell line 165-C5G, 5 μg/mL antigen, autologous B-LCL",703 RLU
same,"Proliferation (luminescent ATP assay), Mean","Donor 3 GMA T-Cell Lines; T-cell line 165-C5G, 10 μg/mL antigen, autologous B-LCL",43 RLU
same,"Proliferation (luminescent ATP assay), Mean","Donor 3 GMA T-Cell Lines; T-cell line 165-E7G, 1.25 μg/mL antigen, autologous B-LCL, Day 55",10001 RLU
same,"Proliferation (luminescent ATP assay), Mean","Donor 3 GMA T-Cell Lines; T-cell line 165-E7G, 2.5 μg/mL antigen, autologous B-LCL, Day 55",14902 RLU
same,"Proliferation (luminescent ATP assay), Mean","Donor 3 GMA T-Cell Lines; T-cell line 165-E7G, 5 μg/mL antigen, autologous B-LCL, Day 55",4087 RLU
same,"Proliferation (luminescent ATP assay), Mean","Donor 3 GMA T-Cell Lines; T-cell line 165-E7G, 10 μg/mL antigen, autologous B-LCL, Day 55",58 RLU
same,"Proliferation (luminescent ATP assay), Mean","Donor 3 GMA T-Cell Lines; T-cell line 165-E9G, 1.25 μg/mL antigen, autologous B-LCL",145 RLU
same,"Proliferation (luminescent ATP assay), Mean","Donor 3 GMA T-Cell Lines; T-cell line 165-E9G, 2.5 μg/mL antigen, autologous B-LCL",801 RLU
same,"Proliferation (luminescent ATP assay), Mean","Donor 3 GMA T-Cell Lines; T-cell line 165-E9G, 5 μg/mL antigen, autologous B-LCL",268 RLU
same,"Proliferation (luminescent ATP assay), Mean","Donor 3 GMA T-Cell Lines; T-cell line 165-E9G, 10 μg/mL antigen, autologous B-LCL",38 RLU
same,"Proliferation (luminescent ATP assay), Mean","Donor 3 GMA T-Cell Lines; T-cell line 165-F5G, 1.25 μg/mL antigen, autologous B-LCL",559 RLU
same,"Proliferation (luminescent ATP assay), Mean","Donor 3 GMA T-Cell Lines; T-cell line 165-F5G, 2.5 μg/mL antigen, autologous B-LCL",2779 RLU
same,"Proliferation (luminescent ATP assay), Mean","Donor 3 GMA T-Cell Lines; T-cell line 165-F5G, 5 μg/mL antigen, autologous B-LCL",89 RLU
same,"Proliferation (luminescent ATP assay), Mean","Donor 3 GMA T-Cell Lines; T-cell line 165-F5G, 10 μg/mL antigen, autologous B-LCL",38 RLU
same,"Proliferation (luminescent ATP assay), Mean","Donor 3 GMA T-Cell Lines; T-cell line 165-F10G, 1.25 μg/mL antigen, autologous B-LCL",5153 RLU
same,"Proliferation (luminescent ATP assay), Mean","Donor 3 GMA T-Cell Lines; T-cell line 165-F10G, 2.5 μg/mL antigen, autologous B-LCL",19489 RLU
same,"Proliferation (luminescent ATP assay), Mean","Donor 3 GMA T-Cell Lines; T-cell line 165-F10G, 5 μg/mL antigen, autologous B-LCL",1990 RLU
same,"Proliferation (luminescent ATP assay), Mean","Donor 3 GMA T-Cell Lines; T-cell line 165-F10G, 10 μg/mL antigen, autologous B-LCL",53 RLU
same,"Proliferation (luminescent ATP assay), Mean","Donor 3 GMA T-Cell Lines; T-cell line 165-H11G, 1.25 μg/mL antigen, autologous B-LCL",144 RLU
same,"Proliferation (luminescent ATP assay), Mean","Donor 3 GMA T-Cell Lines; T-cell line 165-H11G, 2.5 μg/mL antigen, autologous B-LCL",4416 RLU
same,"Proliferation (luminescent ATP assay), Mean","Donor 3 GMA T-Cell Lines; T-cell line 165-H11G, 5 μg/mL antigen, autologous B-LCL",118 RLU
same,"Proliferation (luminescent ATP assay), Mean","Donor 3 GMA T-Cell Lines; T-cell line 165-H11G, 10 μg/mL antigen, autologous B-LCL",40 RLU
same,Non-Canonical Peptide Reactivity,Donor 3 COP T-Cell Lines; 165-C4C,GL 14
same,Non-Canonical Peptide Reactivity,Donor 3 COP T-Cell Lines; 165-C7C,GL 14
same,proliferation response to non-canonical GA peptides,"Donor 3 COP T-Cell Lines; 165-F3C (Day 77) and 165-C4C (Day 66), 0, 1, 3, 10 μg/mL",responded well
same,Non-Canonical Peptide Reactivity,Donor 3 COP T-Cell Lines; 165-F3C,GL 14
same,proliferation response to non-canonical GA peptides,"Donor 3 COP T-Cell Lines; 165-F6C, Day 76, 0, 1.25, 2.5, 5, 10 μg/mL",reacted
same,response relative to the no antigen control,"Donor 3 COP T-Cell Lines; 165-F6C, Day 76, dose of 2.5 μg/mL antigen",4.4 fold
same,Non-Canonical Peptide Reactivity,Donor 3 COP T-Cell Lines; 165-F6C,GL 14
same,Reactive T-Cell Line,"Donor 3 COP T-Cell Lines; Donor 3 COP lines, at least a 50% increase in proliferation relative to a control after stimulation with the non-canonical GA peptide",165-C4C (Donor 3) and 165-C7C (Donor 3) and 165-F6C (Donor 3) and 165-F3C (Donor 3)
same,"Proliferation (luminescent ATP assay), Mean","Donor 3 COP T-Cell Lines; T-cell line 165-C4C, 1 μg/mL antigen, Day 66 of culture, 0 μg/mL 1881",2833
same,"Proliferation (luminescent ATP assay), Mean","Donor 3 COP T-Cell Lines; T-cell line 165-C4C, 3 μg/mL antigen, Day 66 of culture, 0 μg/mL 1881",4920
same,"Proliferation (luminescent ATP assay), Mean","Donor 3 COP T-Cell Lines; T-cell line 165-C4C, 10 μg/mL antigen, Day 66 of culture, 0 μg/mL 1881",49
same,"Proliferation (luminescent ATP assay), Mean","Donor 3 COP T-Cell Lines; T-cell line 165-C7C, 1.25 μg/mL antigen, autologous B-LCL",274 RLU
same,"Proliferation (luminescent ATP assay), Mean","Donor 3 COP T-Cell Lines; T-cell line 165-C7C, 2.5 μg/mL antigen, autologous B-LCL",1797 RLU
same,"Proliferation (luminescent ATP assay), Mean","Donor 3 COP T-Cell Lines; T-cell line 165-C7C, 5 μg/mL antigen, autologous B-LCL",537 RLU
same,"Proliferation (luminescent ATP assay), Mean","Donor 3 COP T-Cell Lines; T-cell line 165-C7C, 10 μg/mL antigen, autologous B-LCL",39 RLU
same,"Proliferation (luminescent ATP assay), Mean","Donor 3 COP T-Cell Lines; T-cell line 165-F3C, 1 μg/mL antigen, Day 77 of culture, 0 μg/mL 1563",2542
same,"Proliferation (luminescent ATP assay), Mean","Donor 3 COP T-Cell Lines; T-cell line 165-F3C, 3 μg/mL antigen, Day 77 of culture, 0 μg/mL 1563",7091
same,"Proliferation (luminescent ATP assay), Mean","Donor 3 COP T-Cell Lines; T-cell line 165-F3C, 10 μg/mL antigen, Day 77 of culture, 0 μg/mL 1563",65
same,"Proliferation (luminescent ATP assay), Mean","Donor 3 COP T-Cell Lines; T-cell line 165-F6C, 1.25 μg/mL antigen, Day 76 of culture, No Antigen value 517",699
same,"Proliferation (luminescent ATP assay), Mean","Donor 3 COP T-Cell Lines; T-cell line 165-F6C, 2.5 μg/mL antigen, Day 76 of culture, No Antigen value 517","2,267"
same,"Proliferation (luminescent ATP assay), Mean","Donor 3 COP T-Cell Lines; T-cell line 165-F6C, 5 μg/mL antigen, Day 76 of culture, No Antigen value 517",114
same,"Proliferation (luminescent ATP assay), Mean","Donor 3 COP T-Cell Lines; T-cell line 165-F6C, 10 μg/mL antigen, Day 76 of culture, No Antigen value 517",33

# From patent US9995734B2, “Human T cell line assay for evaluating the immunologic identity of glatiramer acetate preparations” (Mylan Inc., priority 2013, dated 2018)
